Entries after “also recorded” stand apart in the source; their conditions may differ.
System: mice with gallstones formed due to a high-cholesterol diet
Experiment: Treatment of cholesterol gallstones in mice with gallstones formed by a high-cholesterol (lithogenic) diet, 12 weeks of drug administration
Format: in vivo, C57BL/6J male mice
Method: An overall schematic diagram of the animal experiment is as illustrated in FIG. 1. This will be described below in more detail. C57BL/6J male mice were purchased from Central Lab. Animal Inc. The mice were allowed to have a 4-week compliance period under a condition of controlled light (a cycle of 12-hour light and 12-hour darkness in which darkness is from 6:30 pm to 6:30 am), temperature (22±4° C.), and humidity (50%±20%). The mice had ad libitum access to water (autoclaved distilled water) and were fed commercial feed (Scientific Animal Food & Engineering/+40RMM) containing 2.9% fat, 15.2% protein, and 60.7% carbohydrate. In addition, a lithogenic diet (DYET #102136; Dyets, Inc., Bethlehem, Pa., USA) containing cholesterol (10 g/kg) and cholic acid (5 g/kg) was given for 8 weeks, so that mice with gallstones formed due to a high-cholesterol diet were created.
The mice with gallstones formed due to a high-cholesterol diet were divided into the following groups and experiments were conducted for 12 weeks:
Each of the mice of the control group (1) was administered, using a sonde, 0.3 ml of a mixture of 0.75% Tween 80 and distilled water. The mice of the groups (2) to (4) were administered, using a sonde, a product obtained by diluting 12.5 mg/kg/day of UDCA and 51 mg/kg/day of omega-3 fatty acid in 0.75% Tween 80. […]
After 12 weeks of drug administration, animals were sacrificed and gallbladder tissue was obtained. […] After the high-cholesterol diet, body weight and liver weight were measured; and after the normal diet and therapeutic agent administration, body weight and liver weight were measured (FIG. 2). […]
The size of gall stones in the gallbladder tissue obtained in Example 1 was analyzed on the basis of FIG. 4 (FIGS. 5 and 6). […]
Changes in the weight of liver gallstones after the high-cholesterol diet (base) and after the therapeutic agent administration were analyzed (FIGS. 7 and 8).

[1] = Example 2, anatomical changes before and after 12 weeks of drug administration, normal diet

Structure (SMILES): C[C@H](CCC(=O)O)[C@H]1CC[C@H]2[C@@H]3[C@@H](O)C[C@@H]4C[C@H](O)CC[C@]4(C)[C@H]3CC[C@]12C [UDCA, 3α,7β-dihydroxy-5β-cholanoic acid]
- amount of gallstones after administration (FIG. 3) [1]: insignificantly decreased
- size of gallstones after administration (FIG. 3) [1]: slightly decreased; also recorded: insignificant changes
- size of gallstones, analysed on the classification chart of FIG. 4 (FIGS. 5 and 6) (Example 3, after high-cholesterol diet vs after therapeutic agent administration): no change in size
